For 27 molecules, IC50 results are on record in patent US10722514B2 (FLX Bio, Inc., priority 2017, dated 2020).

pIC50: −log10 of the molar value. Structures can show the parent of a compound that is named as a salt.

Usually pIC50 stands for the negative decadic logarithm of the IC50, by convention in mol/L.

In one assay the target is T1, recombinant full-length USP7 (Homo sapiens, UniProt Q93009).
T1 construct: A 25 μl reaction volume containing recombinant full-length USP7 (62 pM)
T1 sequence (Q93009 whole entry): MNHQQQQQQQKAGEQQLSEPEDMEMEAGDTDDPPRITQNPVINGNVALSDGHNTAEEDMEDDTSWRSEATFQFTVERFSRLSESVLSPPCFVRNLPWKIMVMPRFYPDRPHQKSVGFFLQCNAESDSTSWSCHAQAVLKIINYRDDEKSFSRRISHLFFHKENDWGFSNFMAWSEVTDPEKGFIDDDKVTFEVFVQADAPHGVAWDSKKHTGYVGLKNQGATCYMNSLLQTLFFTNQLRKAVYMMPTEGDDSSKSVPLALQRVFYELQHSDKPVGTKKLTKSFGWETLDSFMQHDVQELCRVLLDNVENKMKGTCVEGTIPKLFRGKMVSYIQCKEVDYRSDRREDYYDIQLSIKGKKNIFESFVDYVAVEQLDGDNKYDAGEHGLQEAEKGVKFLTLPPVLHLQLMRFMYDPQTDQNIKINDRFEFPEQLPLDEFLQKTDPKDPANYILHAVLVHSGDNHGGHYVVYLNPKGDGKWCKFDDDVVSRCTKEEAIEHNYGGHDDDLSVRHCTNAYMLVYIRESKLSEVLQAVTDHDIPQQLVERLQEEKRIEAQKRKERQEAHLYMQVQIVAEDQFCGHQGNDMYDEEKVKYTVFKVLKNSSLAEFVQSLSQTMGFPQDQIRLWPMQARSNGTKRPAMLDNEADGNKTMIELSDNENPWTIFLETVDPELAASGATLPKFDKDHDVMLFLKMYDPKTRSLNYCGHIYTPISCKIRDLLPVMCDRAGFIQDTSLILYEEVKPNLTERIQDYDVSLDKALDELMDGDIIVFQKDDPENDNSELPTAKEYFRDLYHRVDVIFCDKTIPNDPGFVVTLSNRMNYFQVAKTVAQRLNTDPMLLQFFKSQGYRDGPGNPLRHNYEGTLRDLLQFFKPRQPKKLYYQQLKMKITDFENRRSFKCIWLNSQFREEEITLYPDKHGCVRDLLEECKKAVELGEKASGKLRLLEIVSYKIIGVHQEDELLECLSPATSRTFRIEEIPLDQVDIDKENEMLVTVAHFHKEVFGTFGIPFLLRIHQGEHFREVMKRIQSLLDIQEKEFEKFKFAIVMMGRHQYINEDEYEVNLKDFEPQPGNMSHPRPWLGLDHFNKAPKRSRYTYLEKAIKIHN
Put plainly: USP7-mediated ubiquitin-rhodamine cleavage assay. It is filed as biochemical. The note with it: recombinant full-length USP7 62 pM; ubiquitin-rhodamine 100 nM; 30-minute incubation with compound, 1 hour reaction at room temperature; read-out: Potency: USP7 IC50. A digest of the protocol: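 IC50 values came from fluorescence measured after a 1 h room-temperature reaction of 62 pM enzyme with 100 nM ubiquitin-rhodamine, following 30 min compound preincubation; fits used four parameters.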
For `CCN1CC(Oc2c(C)cc(Cl)cc2-c2ccnc3cc(CN4C(=O)C5C(C4=O)C5(C)C)sc23)C(C)(F)C1` (stereo not drawn) [Example 374, 3-[[7-[5-chloro-2-(1-ethyl-4-fluoro-4-methyl-pyrrolidin-3-yl)oxy-3-methyl-phenyl]thieno[3,2-b]pyridin-2-yl]methyl]-6,6-dimethyl-3-azabicyclo[3.1.0]hexane-2,4-dione dihydrochloride], the pIC50 is over 6.00. Same read-out and setting: in the case of `Cc1cc(Cl)cc(-c2ncnc3cc(CN4C(=O)CCC4=O)sc23)c1OC1CCNCC1` [Example 177, 1-((4-(5-Chloro-3-methyl-2-(piperidin-4-yloxy)phenyl)thieno[3,2-d]pyrimidin-6-yl)methyl)pyrrolidine-2,5-dione] it was over 6.00; in that of `Cc1cc(Cl)cc(-c2ncnc3cc(CN4C(=O)C5C(C4=O)C5(C)C)sc23)c1O[C@H]1CC[C@H](C)NC1` (stereo partly drawn) [Example 339, 3-[[4-[5-chloro-3-methyl-2-[[(3S,6S)-6-methyl-3-piperidyl]oxy]phenyl]thieno[3,2-d]pyrimidin-6-yl]methyl]-6,6-dimethyl-3-azabicyclo[3.1.0]hexane-2,4-dione dihydrochloride], over 6.00; in that of `Cc1cc(Cl)cc(-c2ccnc3cc(CN4C(=O)CCC4=O)sc23)c1OC1CCNC1(C)C` (stereo not drawn) [Example 343, 1-[[7-[5-chloro-2-(2,2-dimethylpyrrolidin-3-yl)oxy-3-methyl-phenyl]thieno[3,2-b]pyridin-2-yl]methyl]pyrrolidine-2,5-dione], over 6.00. The same measure, in the same setting: under `CC[C@@H](c1cc2nccc(-c3cc(Cl)cc(C)c3O[C@H]3CCCNC3)c2s1)N1C(=O)CCC1=O` [Example 257, 1-((S)-1-(7-(5-Chloro-3-methyl-2-(((S)-piperidin-3-yl)oxy)phenyl)thieno[3,2-b]pyridin-2-yl)propyl)pyrrolidine-2,5-dione] stands over 6.00; under `Cc1cc(Cl)cc(-c2ccnc3cc(CN4C(=O)C5C(C4=O)C5(C)C)sc23)c1OC1(C)CNC1` (stereo not drawn) [Example 393, 3-[[7-[5-chloro-3-methyl-2-(3-methylazetidin-3-yl)oxy-phenyl]thieno[3,2-b]pyridin-2-yl]methyl]-6,6-dimethyl-3-azabicyclo[3.1.0]hexane-2,4-dione dihydrochloride], over 6.00; under `Cc1cc(Cl)cc(-c2ccnc3cc(CN4C(=O)C(C)C(C)C4=O)sc23)c1O[C@H]1CCCNC1` (stereo partly drawn) [Example 296, 1-[[7-[5-chloro-3-methyl-2-[[(3S)-3-piperidyl]oxy]phenyl]thieno[3,2-b]pyridin-2-yl]methyl]-3,4-dimethyl-pyrrolidine-2,5-dione; 2,2,2-trifluoroacetic acid], over 6.00.

As for `Cc1cc(Cl)cc(-c2ccnc3cc(CN4C(=O)CCC4=O)sc23)c1O[C@@H]1CNC[C@@H]1CO` [Example 98, 1-((7-(5-Chloro-2-(((3S,4R)-4-(hydroxymethyl)pyrrolidin-3-yl)oxy)-3-methylphenyl)thieno[3,2-b]pyridin-2-yl)methyl)pyrrolidine-2,5-dione], the pIC50 was over 6.00. Take `Cc1cc(Cl)cc(-c2ccnc3cc(CO)sc23)c1O[C@@H]1CNC[C@@H]1F` [Example 57, (7-(5-Chloro-2-(((3R,4S)-4-fluoropyrrolidin-3-yl)oxy)-3-methylphenyl)thieno[3,2-b]pyridin-2-yl)methanol]: the pIC50 was 5.00 to 6.00. On the same count and under the same terms, under `Cc1cc(Cl)cc(-c2ncnc3ccsc23)c1O[C@H]1CCCNC1` [Example 262, (S)-4-(5-Chloro-3-methyl-2-(piperidin-3-yloxy)phenyl)thieno[3,2-d]pyrimidine] stands 4.52 to 5.00; under `Cc1cc(Cl)cc(-c2ccnc3cc(CCN4C(=O)CCS4(=O)=O)sc23)c1OC1CCNCC1` [Example 219, 2-(2-(7-(5-chloro-3-methyl-2-(piperidin-4-yloxy)phenyl)thieno[3,2-b]pyridin-2-yl)ethyl)isothiazolidin-3-one 1,1-dioxide], 4.52 to 5.00; under `O=C1CCC(=O)N1Cc1cc2nccc(-c3cc(Cl)ccc3O[C@@H]3CNC[C@@H]3F)c2s1` [Example 119, 1-((7-(5-Chloro-2-(((3R,4S)-4-fluoropyrrolidin-3-yl)oxy)phenyl)thieno[3,2-b]pyridin-2-yl)methyl)pyrrolidine-2,5-dione], 5.00 to 6.00. On the same count and under the same terms, under `Cc1cc(Cl)cc(-c2ccnc3cc(CN4C(=O)CCCC4=O)sc23)c1OC1CCNCC1` [Example 235, 1-((7-(5-Chloro-3-methyl-2-(piperidin-4-yloxy)phenyl)thieno[3,2-b]pyridin-2-yl)methyl)piperidine-2,6-dione] stands over 6.00.

The same assay, now with this note: recombinant full-length USP7 62 pM; ubiquitin-rhodamine 100 nM; 30-minute incubation, 1 hour reaction at room temperature; read-out: Potency (USP7 IC50).
Consider `Cc1cc(Cl)cc(-c2ccnc3cc(Cn4c(=O)ccn(CC(F)(F)F)c4=O)sc23)c1OC1CCOCC1` [Example 670], for which the pIC50 is over 6.00. Same read-out and setting: under `Cc1cc(Cl)cc(-c2ccnc3cc(Cn4c(=O)ccn(CC(F)(F)F)c4=O)sc23)c1OC1CCC1` [Example 683, 3-[[7-[5-chloro-2-(cyclobutoxy)-3-methyl-phenyl]thieno[3,2-b]pyridin-2-yl]methyl]-1-(2,2,2-trifluoroethyl)pyrimidine-2,4-dione] stands over 6.00.

Still in this assay, the particulars now being: recombinant full-length USP7 62 pM; ubiquitin-rhodamine 100 nM; 30-minute pre-incubation, 1 hour reaction at room temperature; read-out: Potency (USP7 IC50).
Turning to `Cc1cc(Cl)cc(-c2ccnc3cc(CN4C(=O)CCC4=O)sc23)c1OC1CC2(CCN2)C1` (stereo not drawn) [Example 439, 1-[[7-[2-(1-azaspiro[3.3]heptan-6-yloxy)-5-chloro-3-methyl-phenyl]thieno[3,2-b]pyridin-2-yl]methyl]pyrrolidine-2,5-dione; 2,2,2-trifluoroacetic acid], the pIC50 is over 6.00.

On to `Cc1cc(Cl)cc(-c2ccnc3cc(Cn4c(=O)ccn(C)c4=O)sc23)c1O[C@@H]1CN[C@@H](C(=O)O)C1` [Example 599, (2R,4S)-4-[4-chloro-2-methyl-6-[2-[(3-methyl-2,6-dioxo-pyrimidin-1-yl)methyl]thieno[3,2-b]pyridin-7-yl]phenoxy]pyrrolidine-2-carboxylic acid], for which the pIC50 was over 6.00. The same measure, in the same setting: in the case of `Cc1cc(Cl)cc(-c2ccnc3cc(Cn4c(=O)ccn(CC(F)(F)F)c4=O)sc23)c1OC1CCNCC12CC2` (stereo not drawn) [Example 617, 3-[[7-[2-(5-azaspiro[2.5]octan-8-yloxy)-5-chloro-3-methyl-phenyl]thieno[3,2-b]pyridin-2-yl]methyl]-1-(2,2,2-trifluoroethyl)pyrimidine-2,4-dione; 2,2,2-trifluoroacetic acid] it was over 6.00. Still for that read-out and setting: under `CCN1CC[C@H](Oc2c(C)cc(Cl)cc2-c2ccnc3cc(Cn4c(=O)ccn(C)c4=O)sc23)CC1(C)C` [Example 491, 3-[[7-[5-chloro-2-[[(4S)-1-ethyl-2,2-dimethyl-4-piperidyl]oxy]-3-methyl-phenyl]thieno[3,2-b]pyridin-2-yl]methyl]-1-methyl-pyrimidine-2,4-dione; 2,2,2-trifluoroacetic acid] stands over 6.00.

Take `Cc1cc(Cl)cc(-c2ccnc3cc(Cn4c(=O)ccn(C)c4=O)sc23)c1O[C@H]1CCN(C)C[C@@H]1F` [Example 472, 3-[[7-[5-chloro-2-[[(3S,4S)-3-fluoro-1-methyl-4-piperidyl]oxy]-3-methyl-phenyl]thieno[3,2-b]pyridin-2-yl]methyl]-1-methyl-pyrimidine-2,4-dione; 2,2,2-trifluoroacetic acid]: the pIC50 was over 6.00. Still for that read-out and setting: in the case of `Cc1cc(Cl)cc(-c2ccnc3cc(Cn4c(=O)ccn(C)c4=O)sc23)c1OC1CC2CC1N(C)C2` (stereo not drawn) [Example 465] it was over 6.00; in that of `Cc1cc(Cl)cc(-c2ccnc3cc(Cn4c(=O)ccn(C)c4=O)sc23)c1OC1CC2CC1N(CCO)C2` (stereo not drawn) [Example 461, 3-[[7-[5-chloro-2-[[3-(2-hydroxyethyl)-3-azabicyclo[2.2.1]heptan-5-yl]oxy]-3-methyl-phenyl]thieno[3,2-b]pyridin-2-yl]methyl]-1-methyl-pyrimidine-2,4-dione], over 6.00. The same measure, in the same setting: in the case of `Cc1cc(Cl)cc(-c2ccnc3cc(Cn4c(=O)c(F)cn(C)c4=O)sc23)c1O[C@H]1CCCNC1` [Example 422, 3-[[7-[5-chloro-3-methyl-2-[[(3S)-3-piperidyl]oxy]phenyl]thieno[3,2-b]pyridin-2-yl]methyl]-5-fluoro-1-methyl-pyrimidine-2,4-dione] it was over 6.00; in that of `Cc1cc(Cl)cc(-c2ccnc3cc(Cn4c(=O)ccn(C)c4=O)sc23)c1O[C@@H]1CNC[C@@H](O)C1` [Example 500, 3-[[7-[5-chloro-2-[[(3S,5S)-5-hydroxy-3-piperidyl]oxy]-3-methyl-phenyl]thieno[3,2-b]pyridin-2-yl]methyl]-1-methyl-pyrimidine-2,4-dione], over 6.00. Still for that read-out and setting: in the case of `Cc1cc(Cl)cc(-c2ccnc3cc(Cn4c(=O)ccn(C)c4=O)sc23)c1O[C@@H]1CCN[C@@H](C)C1` [Example 495, 3-[[7-[5-chloro-3-methyl-2-[[(2S,4R)-2-methyl-4-piperidyl]oxy]phenyl]thieno[3,2-b]pyridin-2-yl]methyl]-1-methyl-pyrimidine-2,4-dione] it was over 6.00; in that of `Cc1cc(Cl)cc(-c2ccnc3cc(Cn4c(=O)ccn(C)c4=O)sc23)c1OC1CCCN(C(C)C)C1` (stereo not drawn) [Example 505, 3-[[7-[5-chloro-2-[(1-isopropyl-3-piperidyl)oxy]-3-methyl-phenyl]thieno[3,2-b]pyridin-2-yl]methyl]-1-methyl-pyrimidine-2,4-dione], over 6.00. As for `Cc1cc(Cl)cc(-c2ccnc3cc(Cn4c(=O)ccn(CC(F)(F)F)c4=O)sc23)c1O[C@@H]1CNC[C@H](F)C1` [Example 623, 3-[[7-[5-chloro-2-[[(3S,5R)-5-fluoro-3-piperidyl]oxy]-3-methyl-phenyl]thieno[3,2-b]pyridin-2-yl]methyl]-1-(2,2,2-trifluoroethyl)pyrimidine-2,4-dione; 2,2,2-trifluoroacetic acid], the pIC50 was over 6.00.
